The source of these data is patent US20220117968A1, “THIENO[2,3-D)PYRIMIDINES AND BENZOFURO(3,2-D)PYRIMIDINES AS ANTIMICROBIAL AGENTS” (Saint Louis University, priority 2017, published 2022).

The structures appear in SMILES notation. Values after ≈ are worked out from the molar mass of the structure shown.

Assay [1] deals with WT Mtb Erdman strain. Briefly: Microplate Alamar Blue Assay (MABA). The assay is classed as cell-based. Conditions: Mycobacterium tuberculosis, Middlebrook 7H9 media, 7 days at 37° C., resazurin 24 hours; for MIC50: concentration that inhibits mycobacterial survival by 50%, read-out: MABA MIC50; for MIC90: concentration that inhibits mycobacterial survival by 90%, read-out: MABA MIC90.

The subject of assay [2] is WT Mtb Erdman. Put plainly: Disk zone of inhibition assay. Type of assay: cell-based. The following applies: Mycobacterium tuberculosis, 240 h, radius of zone absent of bacterial growth, 5 μl of 100 mM stock in DMSO on disk, Middlebrook 7H10 agar, 10 days at 37° C.

Broadly, the MIC50 is the lowest concentration that inhibits either 50% of growth or 50% of the strains tested, depending on the study. For orientation: MIC90 means an inhibitory concentration at the 90% level, which refers to growth in some studies and to a panel of isolates in others. A word on the zone of inhibition: it is the size of the clear area around the sample on an inoculated plate. The low end stands for a weaker effect on the plate, the high end for a stronger effect on the plate. As to `FC(F)(F)c1nc(NC2CC2)c2ccsc2n1` [Example 1541, N-Cyclopropyl-2-(trifluoromethyl)thieno[2,3-d]pyrimidin-4-amine], in assay [1], the MIC50 was determined as 36.8 µM (≈ 9.54 µg/mL) and the MIC90 is > 50 µM. For the same compound, the zone of inhibition at 100000 µM (stock) in assay [2] stood at 1.8 mm.
Consider `CCCCNc1nc(C(F)(F)F)nc2sccc12` [Example 1545, N-Butyl-2-(trifluoromethyl)thieno[2,3-d]pyrimidin-4-amine], for which, in assay [1], the MIC50 was found to be 26.9 µM (≈ 7.41 µg/mL) and the MIC90 was determined as 30.5 µM (≈ 8.4 µg/mL). This compound also yielded a zone of inhibition at 100000 µM (stock) in assay [2] of 1.8 mm.
Consider `CCCCNc1nc(CC)nc2scc(C)c12` [Example 1699, N-Butyl-2-ethyl-5-methylthieno[2,3-d]pyrimidin-4-amine], for which, in assay [1], the MIC50 was 35.5 µM (≈ 8.85 µg/mL) and the MIC90 stood at 45.5 µM (≈ 11.3 µg/mL). Besides, in assay [2], the zone of inhibition at 100000 µM (stock) came to 6 mm.
Turning to `CCc1nc(NC2CC2)c2c(C)csc2n1` [Example 1701, N-Cyclopropyl-2-ethyl-5-methylthieno[2,3-d]pyrimidin-4-amine], in assay [1], the MIC50 worked out at 9.77 µM (≈ 2.28 µg/mL) and the MIC90 stood at 16.1 µM (≈ 3.76 µg/mL). In addition, the zone of inhibition at 100000 µM (stock) in assay [2] worked out at 1.7 mm.
